Measured values published in ChEMBL document CHEMBL4000171, “Structure-activity relationship studies on 1-(2-oxopropyl)indole-5-carboxylic acids acting as inhibitors of cytosolic phospholipase A2α: Effect of substituents at the indole 3-position on activity, solubility, and metabolic stability” (Eur J Med Chem, 2017).
Converted amounts (≈) assume the structure as drawn.

Legend:
[1] = target: T1, NADPH--cytochrome P450 reductase (Rattus norvegicus, UniProt P00388); experiment: Metabolic stability in rat liver microsomes assessed as NADPH CYP450 reductase-mediated compound metabolism by measuring compound remaining in presence of NADPH at 20 uM after 30 mins by HPLC; assay type: ADME; settings: read-out: Stability
T1 sequence (P00388 whole entry): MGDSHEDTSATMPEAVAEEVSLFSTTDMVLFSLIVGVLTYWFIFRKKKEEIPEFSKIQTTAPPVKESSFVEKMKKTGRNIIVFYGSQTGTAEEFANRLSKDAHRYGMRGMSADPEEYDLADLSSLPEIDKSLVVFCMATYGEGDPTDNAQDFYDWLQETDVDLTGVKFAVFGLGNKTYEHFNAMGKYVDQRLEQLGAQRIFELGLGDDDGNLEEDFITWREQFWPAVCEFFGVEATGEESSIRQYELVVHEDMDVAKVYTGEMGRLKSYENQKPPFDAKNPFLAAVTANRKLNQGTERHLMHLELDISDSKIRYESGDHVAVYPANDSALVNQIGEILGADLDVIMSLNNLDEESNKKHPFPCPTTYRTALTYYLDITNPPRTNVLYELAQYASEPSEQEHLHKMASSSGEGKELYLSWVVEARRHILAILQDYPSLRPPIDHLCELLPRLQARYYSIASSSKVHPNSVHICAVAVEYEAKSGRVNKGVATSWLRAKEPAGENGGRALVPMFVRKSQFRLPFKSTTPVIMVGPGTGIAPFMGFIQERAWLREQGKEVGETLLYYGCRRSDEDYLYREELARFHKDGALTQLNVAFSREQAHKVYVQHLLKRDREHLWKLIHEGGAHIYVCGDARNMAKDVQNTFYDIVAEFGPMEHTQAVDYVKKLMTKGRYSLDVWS

[2] = target: T1, NADPH--cytochrome P450 reductase; experiment: Metabolic stability in rat liver S9 fraction assessed as NADPH CYP450 reductase-mediated compound metabolism by measuring compound remaining in presence of NADPH at 20 uM after 30 mins by HPLC method; assay type: ADME; settings: read-out: Stability
UGT [3] = experiment: Metabolic stability in CD-1 mouse liver S9 fraction assessed as UGT-mediated glucuronidation of compound by measuring compound remaining at 5 uM preincubated for 3 mins followed by UDPGA addition measured after 60 mins by HPLC/MS analysis; assay type: ADME; settings: read-out: Stability
UGT [4] = experiment: Metabolic stability in Wistar rat liver S9 fraction assessed as UGT-mediated glucuronidation of compound by measuring compound remaining at 5 uM preincubated for 3 mins followed by UDPGA addition measured after 60 mins by HPLC/MS analysis; assay type: ADME; settings: read-out: Stability
[5] = target: T2, NADPH--cytochrome P450 reductase (Mus musculus, UniProt P37040); experiment: Metabolic stability in CD-1 mouse liver S9 fraction assessed as NADPH CYP450 reductase-mediated compound metabolism by measuring compound remaining in presence of NADPH at 20 uM after 30 mins by HPLC method; assay type: ADME; settings: read-out: Stability
T2 sequence (P37040 whole entry): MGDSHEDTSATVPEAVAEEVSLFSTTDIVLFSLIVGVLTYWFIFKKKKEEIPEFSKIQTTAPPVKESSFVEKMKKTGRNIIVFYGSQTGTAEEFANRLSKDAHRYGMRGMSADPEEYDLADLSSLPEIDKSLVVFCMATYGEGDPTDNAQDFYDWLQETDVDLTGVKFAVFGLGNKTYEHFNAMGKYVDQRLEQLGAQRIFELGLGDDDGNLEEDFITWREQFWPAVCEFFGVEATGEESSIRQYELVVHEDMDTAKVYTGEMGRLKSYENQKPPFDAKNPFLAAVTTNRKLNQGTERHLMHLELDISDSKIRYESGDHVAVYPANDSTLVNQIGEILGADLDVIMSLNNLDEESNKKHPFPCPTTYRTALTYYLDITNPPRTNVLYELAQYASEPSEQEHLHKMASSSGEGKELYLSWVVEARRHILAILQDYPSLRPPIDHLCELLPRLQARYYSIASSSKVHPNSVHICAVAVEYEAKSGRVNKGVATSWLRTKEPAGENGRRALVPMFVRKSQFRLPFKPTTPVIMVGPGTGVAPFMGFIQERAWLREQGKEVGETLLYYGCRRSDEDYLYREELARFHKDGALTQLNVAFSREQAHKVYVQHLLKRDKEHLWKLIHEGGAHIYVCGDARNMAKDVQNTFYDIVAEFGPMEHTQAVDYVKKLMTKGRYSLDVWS

[6] = Thermodynamic solubility of the compound in phosphate buffer at pH 7.4 at 1 mg sonicated for 10 mins measured after 20 hrs by reverse phase HPLC analysis; assay type: physicochemical; settings: read-out: Therm_solubility
[7] = target: T3, Cytosolic phospholipase A2 (Homo sapiens, UniProt P47712); experiment: Inhibition of human platelet cytosolic phospholipase alpha-2 using 1-stearoyl-2-arachidonoyl-sn-glycero-3-phosphocholine/1,2-dioleoyl-sn-glycerol as substrate after 60 mins by UV-HPLC method
T3 sequence (P47712 whole entry): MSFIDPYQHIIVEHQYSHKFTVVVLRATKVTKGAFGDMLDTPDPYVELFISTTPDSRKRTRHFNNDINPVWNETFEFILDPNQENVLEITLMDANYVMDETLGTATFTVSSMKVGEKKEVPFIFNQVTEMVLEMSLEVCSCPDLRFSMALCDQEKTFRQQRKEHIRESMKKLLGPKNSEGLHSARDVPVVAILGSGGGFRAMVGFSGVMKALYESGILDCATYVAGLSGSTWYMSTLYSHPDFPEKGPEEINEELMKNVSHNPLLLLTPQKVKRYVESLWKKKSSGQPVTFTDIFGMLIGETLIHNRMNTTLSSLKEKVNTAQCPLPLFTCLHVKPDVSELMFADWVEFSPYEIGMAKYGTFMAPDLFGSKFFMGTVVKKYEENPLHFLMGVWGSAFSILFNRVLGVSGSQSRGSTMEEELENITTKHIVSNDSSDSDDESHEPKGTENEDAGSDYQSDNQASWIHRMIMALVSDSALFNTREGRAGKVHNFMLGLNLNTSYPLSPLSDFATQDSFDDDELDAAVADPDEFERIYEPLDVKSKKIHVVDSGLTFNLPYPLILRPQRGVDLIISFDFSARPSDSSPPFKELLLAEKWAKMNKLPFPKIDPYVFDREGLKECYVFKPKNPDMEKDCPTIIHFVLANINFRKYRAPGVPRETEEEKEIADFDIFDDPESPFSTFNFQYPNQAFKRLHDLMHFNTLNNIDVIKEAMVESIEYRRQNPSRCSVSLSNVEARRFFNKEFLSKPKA

| remaining at 0.5 h, 20 µM [1] | remaining at 0.5 h, 20 µM [2] | remaining at 1 h, 5 µM (UGT [3]) | remaining at 1 h, 5 µM (UGT [4]) | remaining at 0.5 h, 20 µM [5] | solubility thermodynamic at 20 h [6] | IC50 [7] | SMILES |
| --- | --- | --- | --- | --- | --- | --- | --- |
| 93% | 100% | 78% | 83% | 86% | – | – | CCCCCCCCc1ccc(OCC(=O)Cn2cc(C(=O)CCCCC)c3cc(C(=O)O)ccc32)cc1 |
| 86% | 72% | 27% | 43% | 78% | 422 µg/mL (≈ 788 µM) | 31 nM | CCCCCCCCc1ccc(OCC(=O)Cn2cc(C(=O)CCCCCO)c3cc(C(=O)O)ccc32)cc1 |
| – | – | – | – | – | 246 µg/mL (≈ 688 µM) | – | COc1ccc2c(c1)c(CC(=O)O)c(C)n2C(=O)c1ccc(Cl)cc1 [INDOMETHACIN] |
